# BindingDB's records for patent US20250115578 (Chengdu Kanghong Pharmaceutical, 2025)
# Biological target: Sodium channel protein type 10 subunit alpha (Homo sapiens, UniProt Q9Y5Y9)
# Assay: Electrophysiological Assay
# Experimental: A capillary glass pipette (BF150-86-10, Sutter Instruments) was pulled into a recording electrode with a micropipette puller (P97, Sutter Instruments). The micromanipulator (MP285, Sutter Instruments) was manipulated under an inverted microscope (IX71, Olympus) to make the recording electrode contact the cell and negative pressure suction was applied to achieve a GQ seal. Then, rapid capacitance compensation was performed, and negative pressure was continued, cell membrane was broken by suction, and whole cell recording mode was formed. Then the slow capacitance was compensated and the membrane capacitance and series resistance were recorded without leakage compensation. When the whole cell recording current was stabilized, dosing was initiated, and the next concentration was detected after acting 5 minutes of each drug concentration. Multiple cells were independently repeated during the recording period. All electrophysiological assays were performed at room temperature. Specifically, 6 concentrations (measuring IC50) or 2 concentrations (preliminary screening) were set for each compound, and the percentage of inhibition of sodium channels was determined by calculating the relative percentage of peak current generated before and after each concentration compound treated cells, and the IC50 value or percentage of inhibition at a specific concentration was calculated using IGOR pro software.
# Sequence of Sodium channel protein type 10 subunit alpha (Q9Y5Y9 whole entry): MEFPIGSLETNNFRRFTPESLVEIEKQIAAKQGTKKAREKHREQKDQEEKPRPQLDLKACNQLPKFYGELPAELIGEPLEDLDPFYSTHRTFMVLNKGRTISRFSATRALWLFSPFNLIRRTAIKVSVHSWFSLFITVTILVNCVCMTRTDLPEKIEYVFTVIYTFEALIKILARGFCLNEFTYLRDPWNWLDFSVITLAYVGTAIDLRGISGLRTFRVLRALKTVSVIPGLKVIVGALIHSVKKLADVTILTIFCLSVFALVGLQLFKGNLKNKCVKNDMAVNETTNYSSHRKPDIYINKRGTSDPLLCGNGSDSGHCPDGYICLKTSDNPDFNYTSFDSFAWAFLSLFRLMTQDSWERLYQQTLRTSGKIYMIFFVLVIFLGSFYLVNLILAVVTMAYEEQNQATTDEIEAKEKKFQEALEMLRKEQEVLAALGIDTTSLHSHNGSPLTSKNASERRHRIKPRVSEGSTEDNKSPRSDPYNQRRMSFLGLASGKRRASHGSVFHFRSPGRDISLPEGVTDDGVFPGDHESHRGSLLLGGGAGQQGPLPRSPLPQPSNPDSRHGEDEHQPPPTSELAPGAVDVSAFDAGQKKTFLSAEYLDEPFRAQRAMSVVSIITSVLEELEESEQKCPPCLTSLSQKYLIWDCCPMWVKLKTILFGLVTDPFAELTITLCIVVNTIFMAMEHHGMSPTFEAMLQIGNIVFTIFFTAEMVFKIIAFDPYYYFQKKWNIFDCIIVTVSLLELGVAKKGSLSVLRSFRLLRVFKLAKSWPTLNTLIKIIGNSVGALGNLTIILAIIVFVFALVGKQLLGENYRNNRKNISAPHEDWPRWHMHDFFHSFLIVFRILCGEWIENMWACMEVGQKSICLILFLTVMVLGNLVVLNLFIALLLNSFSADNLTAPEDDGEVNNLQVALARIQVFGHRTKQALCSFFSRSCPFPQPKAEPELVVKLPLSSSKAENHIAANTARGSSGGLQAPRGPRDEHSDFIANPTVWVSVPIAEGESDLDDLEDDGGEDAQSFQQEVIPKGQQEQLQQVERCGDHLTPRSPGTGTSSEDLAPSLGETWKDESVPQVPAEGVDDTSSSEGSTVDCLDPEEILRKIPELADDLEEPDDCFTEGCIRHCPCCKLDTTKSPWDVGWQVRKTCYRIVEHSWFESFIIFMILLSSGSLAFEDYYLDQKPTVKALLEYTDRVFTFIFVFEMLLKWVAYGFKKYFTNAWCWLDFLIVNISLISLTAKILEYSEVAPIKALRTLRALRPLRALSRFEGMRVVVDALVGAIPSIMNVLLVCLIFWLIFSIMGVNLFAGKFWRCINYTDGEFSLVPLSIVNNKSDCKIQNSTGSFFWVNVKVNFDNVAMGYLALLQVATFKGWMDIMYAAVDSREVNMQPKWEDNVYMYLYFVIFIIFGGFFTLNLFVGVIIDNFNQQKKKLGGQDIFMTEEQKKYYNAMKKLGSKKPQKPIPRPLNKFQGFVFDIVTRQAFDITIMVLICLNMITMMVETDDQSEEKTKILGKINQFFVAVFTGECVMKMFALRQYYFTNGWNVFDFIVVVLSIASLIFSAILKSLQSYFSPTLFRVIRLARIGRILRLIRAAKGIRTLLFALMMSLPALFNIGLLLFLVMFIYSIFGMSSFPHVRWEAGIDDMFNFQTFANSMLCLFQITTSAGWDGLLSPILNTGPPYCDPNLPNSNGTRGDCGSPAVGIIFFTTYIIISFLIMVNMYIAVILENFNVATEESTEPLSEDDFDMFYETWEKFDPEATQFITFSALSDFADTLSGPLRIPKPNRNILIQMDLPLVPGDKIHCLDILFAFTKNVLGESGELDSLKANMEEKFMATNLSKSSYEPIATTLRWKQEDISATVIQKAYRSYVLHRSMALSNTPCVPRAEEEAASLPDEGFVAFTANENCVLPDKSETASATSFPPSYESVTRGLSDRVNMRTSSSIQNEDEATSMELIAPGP
row,SMILES,IC50 [nM]
1,"O=C(Nc1cc[nH]c(=O)c1)c1nc2ccccc2nc1N1CCCC(F)(F)CC1 [US20250115578, KH03]",> 10
2,"O=C(Nc1ccc[n+]([O-])c1)c1nc2ccccc2nc1N1CCCC(F)(F)CC1 [US20250115578, KH01]",> 100
3,"O=C(Nc1cn[nH]c(=O)c1)c1nc2ccccc2nc1N1CCCC(F)(F)CC1 [US20250115578, KH04]",66.7
